As a reminder, the IC50 is the concentration needed to halve the response being measured.

This note sets out measurements from publication PMC8703108, “Identifying of Anti-Thrombin Active Components From Curcumae Rhizoma by Affinity-Ultrafiltration Coupled With UPLC-Q-Exactive Orbitrap/MS” (Frontiers in Pharmacology, 2021).

This test deals with T1, thrombin (THR, FIIα) (Homo sapiens, UniProt P00734).
T1 construct: gene F2; human recombinant THR
Kind of test: chromogenic substrate S-2238 assay; affinity ultrafiltration LC-MS hit. Format: biochemical.

`CC(=O)OC(CCc1ccc(O)c(O)c1)CC(CCc1ccc(O)c(O)c1)OC(C)=O` (stereo not drawn) [C7, 4,4′-[3,5-bis(acetyloxy)-1,7-heptanediyl]bis-1,2-benzenediol] registered a half-maximal inhibitory concentration (IC50) of 358 µM.

For `CC(=O)OC(CCc1ccc(O)cc1)CC(O)CCc1ccc(O)cc1` (stereo not drawn) [C8, 3-acetate-1,7-bis(4-hydroxyphenyl)-3,5-heptanediol], inhibition was half-maximal at 9.92 µM (IC50).

Compound `CC(=O)OC(CCc1ccc(O)cc1)CC(CCc1ccc(O)c(O)c1)OC(C)=O` (stereo not drawn) [C11, 4-[3,5-bis(acetyloxy)-7-(4-hydroxyphenyl)heptyl]-1,2-benzenediol] gave a concentration for half-maximal inhibition (IC50) of 654 µM.
